Twelve compounds from PubChem BioAssay (NCI) can be followed below.

Some test systems named below: IGROV1 ovarian; CCRF-CEM leukemia; U251 CNS; SK-MEL-5 melanoma; A549 NSCLC; NCI/ADR-RES ovarian; RPMI-8226 leukemia; NCI-H23 lung; SW-620 colon; UACC-62 melanoma.
Holding throughout (assay): inhibition of tumour cell growth, NCI panel, 48 h

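Cultured in 96-well plates, cells were exposed to test compound for 48 hours across five concentrations. GI50 is the concentration that inhibits growth by half. TGI: total growth inhibition.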

As to `Cc1ccc2c(Nc3cccc(Cl)c3F)ncc(NC(=O)c3csc4c(N)ncnc34)c2c1`, the GI50 in the test with IGROV1 ovarian is 0.605 µM; in the test on CCRF-CEM leukemia it was 21.2 µM; in the test on U251 CNS, more than 76.3 µM; in the test with SK-MEL-5 melanoma it was more than 100 µM; with A549 NSCLC, more than 73.5 µM; in the test on NCI/ADR-RES ovarian, more than 100 µM. In addition, the GI50 is 2.81 µM in the test with RPMI-8226 leukemia, 0.522 µM in the test with NCI-H23 lung and 1.21 µM in the test with SW-620 colon. Moreover, the TGI with IGROV1 ovarian, in the test with CCRF-CEM leukemia, in the test on U251 CNS, with SK-MEL-5 melanoma, in the test with A549 NSCLC and with NCI/ADR-RES ovarian was more than 100 µM in each case. In addition, the TGI in the test on RPMI-8226 leukemia, in the test with NCI-H23 lung and with SW-620 colon was more than 100 µM throughout.
As for `O=Cc1ccc(Oc2c3ccccc3nc3occc23)cc1`, the GI50 was 24.6 µM in the test with IGROV1 ovarian; 13.8 µM with CCRF-CEM leukemia; 22.4 µM with A549 NSCLC; 15.2 µM in the test on NCI/ADR-RES ovarian; 12.2 µM in the test on RPMI-8226 leukemia; 15 µM in the test on NCI-H23 lung. Besides, in the test on UACC-62 melanoma, the GI50 was 13.1 µM. The TGI in the test with IGROV1 ovarian is more than 100 µM; with CCRF-CEM leukemia it was 35.4 µM; in the test on A549 NSCLC it was 50.5 µM; with NCI/ADR-RES ovarian it was 45 µM; with RPMI-8226 leukemia, 48.3 µM; with NCI-H23 lung, 36 µM. In addition, the TGI in the test with UACC-62 melanoma turned out to be 30.4 µM.
On to `CC1=CC2=C(C(N)=O)C(=O)OC2(C)C(c2ccccc2)C1` (stereo not given), for which the TGI with IGROV1 ovarian, with U251 CNS, in the test with A549 NSCLC, in the test with NCI/ADR-RES ovarian, in the test with RPMI-8226 leukemia and with SW-620 colon was more than 100 µM in each case. Further, the TGI with UACC-62 melanoma is more than 100 µM.
Turning to `O=C1c2cc3c(cc2[C@@H]2[C@H]1c1ccc([N+](=O)[O-])cc1C(=O)N2CCCCl)OCO3`, the GI50 is less than 0.01 µM in the test with IGROV1 ovarian; less than 0.01 µM in the test on U251 CNS; less than 0.01 µM in the test on SK-MEL-5 melanoma; less than 0.01 µM in the test with A549 NSCLC; less than 0.01 µM with NCI/ADR-RES ovarian; less than 0.0171 µM in the test with RPMI-8226 leukemia. Also, the GI50 in the test with NCI-H23 lung, in the test with SW-620 colon and with UACC-62 melanoma was less than 0.01 µM in each case. Further, the TGI in the test with IGROV1 ovarian is more than 100 µM; in the test with U251 CNS, less than 0.0128 µM; in the test on SK-MEL-5 melanoma, less than 0.01 µM; in the test on A549 NSCLC, more than 100 µM; with NCI/ADR-RES ovarian, 0.548 µM; in the test on RPMI-8226 leukemia, more than 100 µM. Moreover, the values for the TGI with NCI-H23 lung, with SW-620 colon and in the test on UACC-62 melanoma were 0.0398 µM, more than 100 µM and less than 0.0171 µM, respectively.
For `Cc1ccc2c(c1)SC(c1cc3c(cc1Br)OCO3)S2` (stereo not given), the TGI in the test with IGROV1 ovarian, in the test on CCRF-CEM leukemia, in the test with U251 CNS, with SK-MEL-5 melanoma, in the test with A549 NSCLC and in the test on RPMI-8226 leukemia was more than 31.6 µM throughout. In addition, the figures for the TGI with NCI-H23 lung, in the test on SW-620 colon and in the test with UACC-62 melanoma were more than 31.6 µM, more than 100 µM and more than 31.6 µM, respectively.
On to `COc1cc([C@@H]2c3cc4c(cc3[C@@H](NCc3ccccc3)C3COC(=O)[C@@H]32)OCO4)cc(OC)c1O` (stereo not given in full), for which the TGI with IGROV1 ovarian is more than 92.3 µM; in the test on CCRF-CEM leukemia it was more than 27.2 µM; in the test with U251 CNS it was 27.3 µM; in the test with SK-MEL-5 melanoma, 35.8 µM; in the test on A549 NSCLC, 15.4 µM; in the test on RPMI-8226 leukemia, 21.2 µM. Moreover, the values for the TGI in the test on NCI-H23 lung, in the test on SW-620 colon and in the test on UACC-62 melanoma were 23.8 µM, 57.5 µM and 22.1 µM, respectively.
On to `O=C(NC(=S)NNC(=S)NNc1ccccc1)c1ccccc1`, for which the GI50 with IGROV1 ovarian was 4.8 µM; in the test on CCRF-CEM leukemia it was 5.33 µM; in the test on U251 CNS, 8.36 µM; in the test on SK-MEL-5 melanoma it was 3.73 µM; in the test on A549 NSCLC it was 8.58 µM; with NCI/ADR-RES ovarian, 5.26 µM. The results for the GI50 in the test with RPMI-8226 leukemia and in the test with SW-620 colon were 3.55 µM and 4.09 µM, respectively. The TGI with IGROV1 ovarian, in the test with CCRF-CEM leukemia, in the test with U251 CNS, in the test with SK-MEL-5 melanoma, with A549 NSCLC and with NCI/ADR-RES ovarian was more than 100 µM in each case. The TGI with RPMI-8226 leukemia and in the test with SW-620 colon was more than 100 µM throughout.
Regarding `CCOC(=O)N1N=NC2C3OC(C[C@@]3(C#N)OC(C)=O)[C@H]21` (stereo not given in full), the TGI in the test with IGROV1 ovarian, in the test on CCRF-CEM leukemia, with U251 CNS, in the test with SK-MEL-5 melanoma, in the test on A549 NSCLC and in the test on RPMI-8226 leukemia was more than 100 µM throughout. Besides, the TGI in the test with NCI-H23 lung, in the test on SW-620 colon and in the test on UACC-62 melanoma was more than 100 µM each time.
Turning to `Cc1ccc(C2(O)CC(c3ccc([N+](=O)[O-])o3)=NN2C(=O)COc2ccccc2Cl)cc1` (stereo not given), the TGI with IGROV1 ovarian was more than 100 µM; with CCRF-CEM leukemia, more than 100 µM; in the test with U251 CNS, 28.2 µM; with SK-MEL-5 melanoma, 8.54 µM; in the test on A549 NSCLC, more than 100 µM; in the test with RPMI-8226 leukemia it was more than 31.9 µM. For the same compound, the TGI was determined as 33.6 µM in the test with NCI-H23 lung, 72.3 µM in the test with SW-620 colon and 24.5 µM in the test with UACC-62 melanoma.
Consider `C[C@]12CCC3c4ccc(O)cc4CCC3C1Cc1ccc(O)cc12` (stereo not given in full), for which the GI50 in the test on IGROV1 ovarian is 9.72 µM; with CCRF-CEM leukemia, 4.14 µM; in the test on U251 CNS it was 5.24 µM; with SK-MEL-5 melanoma it was 4.85 µM; in the test with A549 NSCLC, 13 µM; in the test with NCI/ADR-RES ovarian, 2.35 µM. Also, the GI50 is 3.75 µM with RPMI-8226 leukemia, 3.7 µM with SW-620 colon and 5.25 µM with UACC-62 melanoma. Also, the TGI in the test with IGROV1 ovarian came out at 26.1 µM; in the test with CCRF-CEM leukemia, 17.2 µM; with U251 CNS it was 17.4 µM; in the test with SK-MEL-5 melanoma, 16.8 µM; with A549 NSCLC it was 38.4 µM; in the test on NCI/ADR-RES ovarian, 6.74 µM. Further, the TGI with RPMI-8226 leukemia is 18 µM; in the test with SW-620 colon, 14.9 µM; in the test with UACC-62 melanoma, 17.1 µM.
Turning to `NCCCC1NC(=O)/C(=C(O)/C=C/C2CCC[C@@H]2CC2SCCS2)C1=O` (stereo not given in full), the TGI in the test on IGROV1 ovarian, with CCRF-CEM leukemia, in the test on U251 CNS, in the test on SK-MEL-5 melanoma, in the test on A549 NSCLC and in the test with RPMI-8226 leukemia was more than 100 µM in each case. Also, the TGI in the test with NCI-H23 lung, in the test on SW-620 colon and with UACC-62 melanoma was more than 100 µM throughout.
Consider `O=C1[C@@H]2C3SC(c4ccccc43)[C@@H]2C(=O)N1c1ccccc1`, for which the TGI in the test on IGROV1 ovarian, in the test on CCRF-CEM leukemia, in the test on U251 CNS, in the test with SK-MEL-5 melanoma, in the test on A549 NSCLC and in the test with RPMI-8226 leukemia was more than 100 µM throughout. Besides, the TGI in the test with NCI-H23 lung, in the test with SW-620 colon and in the test on UACC-62 melanoma was more than 100 µM each time.
